Measured values from a melting point compilation (Tetko et al.; mined from patent text by program, amines drawn as free bases though some values may be those of a salt).

Compound | melting point [°C]
Cc1cccc(-c2[nH]c(C(C)(C)C)nc2-c2cccc(-c3ccc(C(=O)NC4CCOCC4)cc3)c2)n1 | 146 to 149
CCC(C)S(=O)(=O)NC(=O)Nc1ccc(Cl)cc1 (stereo not given) | 172 to 174
O=c1c2c(cnn1CC=Cc1ccccc1)C(Cc1ccccc1)NCCS2 (stereo not given) | 101 to 102
C#CC1(OCc2ccccc2F)CCN(C(C)=O)CC1 | 59 to 62
C[C@H](NC(=O)OC(C)(C)C)C(=O)CCl | 64 to 66.5
O=C1NC(=O)c2c1c(-c1ccccc1Cl)cc1c2c(Br)cn1CCCO | 121 to 123
CCCCCCCCCCCC(=O)c1ccc2c(Cl)cccc2c1O | 86 to 87
COc1cc2c(cc1OC)C(C(S)(C#N)C(C)C(=O)O)=NCC2 (stereo not given) | 155 to 158
COc1ccc(-c2c(C(=O)O)c(=O)[nH]c3ccc(C)cc23)cc1OC | 240 to 241
CN1C(=O)CN=C(c2ccccc2F)c2cc(NC(=O)N3CCCC3)ccc21 | 159 to 160
CCCCCCNC(=O)n1nc(Oc2ncc(C(F)(F)F)cc2Cl)c(Cl)c1C | 57 to 59
CN(CCCNc1ncc(Cc2cccc(Cl)c2)c(=O)[nH]1)c1ccccn1 | 105 to 107
CSc1cc(S(F)(F)(F)(F)F)ccc1C(=O)O | 150 to 152
COCCN(C)C(=O)COc1cc(-c2ccc(C)cc2)nc2cccc(C(F)(F)F)c12 | 116
COc1ccc(-c2noc(C)n2)c(OC)c1C | 105 to 107
CN1CCN(CCc2ccc(Nc3ncc4c(n3)-c3ccccc3C(c3cccc(Br)c3)C4)cc2)CC1 (stereo not given) | 100 to 102
C=CCN1C(=C)C(=O)N[C@@H](Cc2ccccc2)C1=O | 102 to 110
COc1cc(-c2c(Cl)c(CN3C(=O)CCC3=O)nc3sc4c(c23)CCN(C(C)=O)C4)ccc1OC(C)C | 242 to 243
CCOC(=O)CCCCCOc1ccc(C(=O)Nc2ccccc2Oc2ccccc2-c2nnn[nH]2)cc1 | 140 to 141
O=C(NC(=O)c1c(F)cccc1F)Nc1cc(C(F)(F)F)c(F)cc1Cl | 192
CCCCc1ccc(NC2=NCCS2)cc1 | 73 to 75
Cc1ccc2ccccc2c1NC1COC(=O)C1 (stereo not given) | 92 to 94
COc1ccccc1-c1ccc(S(=O)(=O)Nc2onc(C)c2Br)s1 | 114 to 117
COc1ccc(SSc2ccc(OC)cc2C(=O)Nc2ccc(S(N)(=O)=O)cc2)c(C(=O)Nc2ccc(S(N)(=O)=O)cc2)c1 | 242 to 243

Compound | melting point [°C]
O=C(CCCCCl)c1cc2c3c(c1)CC(=O)N3CCC2 | 89 to 90
CC(C#N)(CNC(=O)c1nn(C2CCCCO2)cc1NC(=O)c1ccccn1)Cc1ccccc1 (stereo not given) | 187 to 190
CCOC(=O)c1ccc(Cl)nc1OCC | 33 to 35
CCCCCCCCCCCCc1ccccc1C(Sc1nc(C)c(C(=O)O)s1)C(=O)O (stereo not given) | 88 to 91
COc1cc(CCCC2SC(=O)NC2=O)ccc1OCc1coc(CCc2ccccc2)n1 (stereo not given) | 126 to 127
COc1ccc(CC([N+](=O)[O-])C2(CCCCc3ccc(C)cc3)OCCO2)cc1OC (stereo not given) | 89 to 91
CCOc1cc(N)c(Cl)cc1C(=O)NC1CCN(CC2CCN(C(=O)N(C)C)CC2)CC1 | 203 to 205
CCCc1ccc(C=NN=Cc2ccc(F)c(F)c2)cc1 | 50
O=C(Nc1cccc2c(-c3ccccc3)c([N+](=O)[O-])oc12)C(F)(F)F | 194 to 196
Cc1nc2c(C(F)(F)F)cccc2c(=O)n1C1CCC(=O)NC1=O (stereo not given) | 351 to 353
O=C(Nc1cccc(S(=O)(=O)N2CCCC2)c1)c1cnn2c(C(F)F)cc(-c3ccc(Cl)cc3)nc12 | 227
CC(C)(O)c1ccc(-c2cnc3c(n2)N(CCN2CCOCC2)CC(=O)N3)cn1 | 239 to 241
CC(=O)c1c(-c2ccc(Cl)cc2)c(-c2ccc(Cl)cc2)nn(CCN(C)C)c1=O | 149 to 150
O=C(Cn1nnc2ccccc21)Nc1ccc(-n2nc(C(F)(F)F)cc2C2CC2)cc1 | 200 to 204
CCOC(=O)c1nc2scc(C)n2c1C | 141 to 142
CCCc1ccc2nc(C(F)(F)F)c(S(N)(=O)=O)n2n1 | 151 to 152
CCC1=C(C)CN(C(=O)NCC2CCOc3cc(O)c(S(N)(=O)=O)cc32)C1=O (stereo not given) | 175
COc1ccccc1OC(=O)CCl | 60 to 61.5
O=C1c2ccc(F)cc2C(=O)N1CCN1CCN(c2n[nH]c3cc(F)ccc23)CC1 | 282 to 285
COc1cccc(-c2nc(C(=O)c3ccc(N)c(OC)c3)n3ccccc23)c1 | 210
CC1CN(C)CC(C)(c2cccc(O)c2)O1 (stereo not given) | 142 to 143
COC(=O)c1cc(CCN(C)CCCC(C#N)(c2ccc(OC)c(OC)c2)C(C)C)cc(C(=O)OC)c1 (stereo not given) | 100 to 103
CCCc1nc(Nc2ccc(F)c(Cl)c2)nc(NC2CCN(S(C)(=O)=O)CC2)n1 | 86 to 87
Cn1ncc(C(=O)Nc2ccc(-n3nc(C(F)(F)F)cc3C(F)(F)F)cc2)c1[N+](=O)[O-] | 214 to 216

Compound | melting point [°C]
CCOC(=O)c1c(CS(=O)(=O)c2nc3ccccc3[nH]2)nc2cc(OC)c(OC)cc2c1-c1ccc(OC)c(OC)c1 | 181 to 182
O=C1NCc2c1cccc2-c1cccc2cc(Cc3cccc(C(F)(F)F)c3)sc12 | 195 to 196
NC(=O)c1cccnc1Nc1cccc([N+](=O)[O-])c1 | 240 to 241
Clc1cccc2c1CSCCCN2 | 71 to 73
CC(C)(C)OC(=O)COc1ccc(C(=O)NNC(=O)c2ccc(CNC(=O)OC(C)(C)C)cc2)cc1OCC(=O)OC(C)(C)C | 156 to 158
CCC(C)(C)NC(=S)Nc1cc(F)cc(Br)c1 | 123 to 124
Cc1nc(-c2c(Cl)cccc2Cl)n[nH]1 | 221 to 226
Cc1cc(C)c2ncc(NC(=O)c3cc(C(C)C)c(O)c(C(C)C)c3)c(-c3ccccc3Cl)c2c1 | 237 to 238
CC1C(=O)CC(C)C(C#N)C1=O (stereo not given) | 178 to 179
[O-][N+](=Cc1ccc(OCc2ccccc2)cc1)C1CCCC1 | 115
COc1cc(C(=O)O)ccc1Cc1c[nH]c2ccc(NC(=O)CC3CCCC3)cc12 | 218 to 219
O=S(=O)(Oc1cccc(O)c1)c1ccc(Cl)c(Cl)c1 | 107 to 110
Cc1ccc(S(=O)(=O)Nc2cccc3ccc(Oc4ccc5nc(COc6ccc(CC7SC(=O)NC7=O)cc6)n(C)c5c4)cc23)cc1 (stereo not given) | 137 to 144
CC(=O)n1cc(/C=C2\N=C(c3ccccc3)OC2=O)c2cc(Cl)cnc21 | 242
Oc1cccc(CCN2CCCC2)c1 | 99 to 102
CNC(=O)C(=NOC)c1ccccc1COc1ncc(C)cc1Br | 104 to 105
O=C1NC(c2ccccc2)CN1CCO (stereo not given) | 60 to 63
COC(=O)NC(=O)n1cc(C(=O)c2ccn3c2CSC3c2cccnc2)c2ccc(OCc3ccccc3)cc21 (stereo not given) | 152 to 153
OC(Cn1ccnc1)(c1ccc(Cl)cc1)C1(n2cnc(Cl)n2)CC1 (stereo not given) | 231
O=C(O)Cc1ccc(-c2ccccc2F)c(F)c1 | 126 to 127
O=C(c1ccc(Cl)cn1)c1ccc(Cl)cn1 | 164 to 167
COc1cc2c(cc1-c1cnccn1)-c1c(-c3cccs3)c3c(n1CC2)C(=O)N(C(C)(C)C)CCCOC3 | 267 to 268
C=CCON(CCCCCCCCCCCCCCCCCC)CCCCCCCCCCCCCCCCCC | 60 to 62
CN(C(=O)CBr)c1cccc(-c2ccnc3c(C(=O)c4ccccc4)cnn23)c1 | 175 to 177

Compound | melting point [°C]
COc1ccc(-c2[nH]nc3c2C(=O)c2c(NC(=O)C4CCC4)cccc2-3)cc1 | 297
O=c1c(C(F)(F)F)cn(C2CC(O)C(COCc3ccccc3)O2)c(=O)n1C1CCCO1 (stereo not given) | 145 to 147
CC1CCc2c(N3CCCC3)c(F)cc3c(=O)c(C(=O)O)cn1c23 (stereo not given) | 243 to 245
N#Cc1cnc2c(sc3c(N)cccc32)c1Nc1cccc(Br)c1 | 256 to 258
CC(=O)CCCCCCCC(=O)c1ccc(OCc2ccccc2)c(OCc2ccccc2)c1 | 72 to 74
COc1ccc(-n2c(=O)[nH]c3c(-c4ccc(C(F)(F)F)cc4F)ncnc32)cc1 | 296 to 297
Cc1ccccc1S(=O)(=O)NC(=O)c1csc(Cc2ccc3oc(-c4nc(C(C)(C)C)cs4)cc3c2)n1 | 201 to 203
O=C(O)c1ccc2c(c1)S(=O)(=O)c1ccccc1S2=O (stereo not given) | 340 to 343
COC1(c2cccc(S(=O)(=O)c3ccc4c(c3)C(C)(C)S(=O)(=O)C4(C)C)c2)CCOCC1 | 115
COc1cccc(-n2c(=O)oc3ccc(-c4ccc(F)cc4F)cc3c2=O)c1 | 160 to 161
CC(C)CCOc1cccc2oc(-c3nnn[nH]3)cc(=O)c12 | 165 to 166
CC[C@H]1[C@@H](N)CN1c1cc2c(cc1F)c(=O)c(C(=O)O)cn2C1CC1 (relative stereo) | 236 to 237
Nc1cccc(Oc2ccc(Sc3ccc(Oc4cccc(N)c4)cc3)cc2)c1 | 112 to 113
O=C(Nc1ccccc1)NC1C(=O)N(CCO)c2ccccc2N(CC23CC4CC(CC(C4)C2)C3)C1=O (single isomer, unassigned; (-)) | 165 to 170
Cc1ccc2c3c(ccc2n1)OC[C@H](CNCC1CCc2sc4ccc(F)cc4c2C1)O3 (stereo not given in full) | 115 to 118
COC(=O)c1nc(C#N)ccc1OCc1ccccc1 | 104 to 105
COc1ccc(OCCCO)cc1 | 56 to 60
CCCCCc1ccc(C=Cc2cc3sc(C=Cc4ccc(CCCCC)cc4)cc3s2)cc1 | 320
O=C(c1ccc(-c2ccn(C(=O)c3ccc(F)cc3Cl)n2)cc1)N1Cc2cccn2Cc2ccccc21 | 150 to 157
Cn1c(COc2ccc(C(C)(CCC(=O)O)c3ccc(OCc4nc5ccccc5n4C)cc3)cc2)nc2ccccc21 | 110 to 112
CC(=O)c1c(Cl)nc2n(c1=O)CCS2 | 135 to 136
COc1ccc(C2=NN(c3ccc(O)cc3)C(=O)C(C)(C)C2)cc1OC | 176 to 178
CC(C)(C)OC(=O)NCCCCO/N=C(\C(=O)O)c1csc(NC(c2ccccc2)(c2ccccc2)c2ccccc2)n1 | 120 to 124
